Assay results as given in patent publication US20130096136A1, “Inhibitors of Protein Tyrosine Kinase Activity” (METHYLGENE INC., priority 2011, published 2013).

How the values were obtained:
VEGFR2 (KDR) = molecular target: T1, VEGFR2 (KDR) (Homo sapiens, UniProt P35968); assay: In Vitro Receptor Tyrosine Kinase Assay (VEGF receptor KDR), DELFIA; type: biochemical; conditions: recombinant GST-VEGFR2 806-1356, enzyme 5 nM, ATP 0.6 uM (2x Km), poly(Glu4,Tyr) substrate; read-out: VEGFR_IC50_UM
T1 construct: made in house; host or cells: Sf9 cells (Spodoptera frugiperda), recombinant baculovirus
T1 sequence (P35968 806-1356): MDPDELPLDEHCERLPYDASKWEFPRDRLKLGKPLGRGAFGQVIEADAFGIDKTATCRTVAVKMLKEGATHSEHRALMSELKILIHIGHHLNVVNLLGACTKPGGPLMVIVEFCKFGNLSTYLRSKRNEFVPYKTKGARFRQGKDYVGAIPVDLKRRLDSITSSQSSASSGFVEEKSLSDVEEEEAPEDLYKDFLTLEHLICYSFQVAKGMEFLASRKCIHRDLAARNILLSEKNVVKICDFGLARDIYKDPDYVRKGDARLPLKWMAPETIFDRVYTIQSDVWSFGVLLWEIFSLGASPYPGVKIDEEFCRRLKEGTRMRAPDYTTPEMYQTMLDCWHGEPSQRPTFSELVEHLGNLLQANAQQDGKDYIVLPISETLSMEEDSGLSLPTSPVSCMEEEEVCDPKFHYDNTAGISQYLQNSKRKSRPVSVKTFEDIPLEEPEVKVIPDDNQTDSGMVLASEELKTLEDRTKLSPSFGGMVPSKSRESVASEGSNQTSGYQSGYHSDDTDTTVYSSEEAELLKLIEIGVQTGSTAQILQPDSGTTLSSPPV
Description: This test measures the ability of compounds to inhibit the enzymatic activity of recombinant human VEGF receptor enzymatic activity.
A 1.6-kb cDNA corresponding to the catalytic domain of VEGFR2 (KDR) (Genbank accession number AF035121 amino acid 806 to 1356) is cloned into the Pst I site of the pDEST20 Gateway vector (Invitrogen) for the production of a GST-tagged version of that enzyme. This construct is used to generate recombinant baculovirus using the Bac-to-Bac™ system according to the manufacturer's instructions (Invitrogen).
The GST-VEGFR2806-1356 protein is expressed in Sf9 cells (Spodoptera frugiperda) upon infection with recombinant baculovirus construct. Briefly, Sf9 cells grown in suspension and maintained in serum-free medium (Sf900 II supplemented with gentamycin) at a cell density of about 2×10^6 cells/ml are infected with the above-mentioned viruses at a multiplicity of infection (MOI) of 0.1 during 72 hours at 27° C. with agitation at 120 rpm on a rotary shaker. Infected cells are harvested by centrifugation at 398 g for 15 min. Cell pellets are frozen at −80° C. until purification is performed.
All steps described in cell extraction and purification are performed at 4° C. Frozen Sf9 cell pellets infected with the GST-VEGFR2806-1356 recombinant baculovirus are thawed and gently resuspended in Buffer A (PBS pH 7.3 supplemented with 1 μg/ml pepstatin, 2 μg/ml Aprotinin and leupeptin, 50 μg/ml PMSF, 50 μg/ml TLCK and 10 μM E64 and 0.5 mM DTT) using 3 ml of buffer per gram of cells. Suspension is Dounce homogenized and 1% Triton X-100 is added to the homogenate after which it is centrifuged at 22500 g, 30 min., 4° C. The supernatant (cell extract) is used as starting material for purification of GST-VEGFR2806-1356.
The supernatant is loaded onto a GST-agarose column (Sigma) equilibrated with PBS pH 7.3. Following a four column volume (CV) wash with PBS pH 7.3+1% Triton X-100 and 4 CV wash with buffer B (50 mM Tris pH 8.0, 20% glycerol and 100 mM NaCl), bound proteins are step eluted with 5 CV of buffer B supplemented with 5 mM DTT and 15 mM glutathion. GST-VEGFR2806-1356 enriched fractions from this chromatography step are pooled based on U.V. trace i.e. fractions with high O.D.280. Final GST-VEGFR2806-1356 protein preparations concentrations are about 0.7 mg/ml with purity approximating 70%. Purified GST-VEGFR2806-1356 protein stocks are aliquoted and frozen at −80° C. prior to use in enzymatic assay.
Inhibition of VEGFR/KDR is measured in a DELFIA™ assay (Perkin Elmer). The substrate poly(Glu4, Tyr) is immobilized onto black high-binding polystyrene 96-well plates. The coated plates are washed and stored at 4° C. During the assay, the enzyme is pre-incubated with inhibitor and Mg-ATP on ice in polypropylene 96-well plates for 4 minutes, and then transferred to the coated plates. The subsequent kinase reaction takes place at 30° C. for 10-30 minutes. ATP concentrations in the assay are 0.6 uM for VEGFR/KDR (2× the Km). Enzyme concentration is 5 nM. After incubation, the kinase reactions are quenched with EDTA and the plates are washed. Phosphorylated product is detected by incubation with Europium-labeled anti-phosphotyrosine MoAb. After washing the plates, bound MoAb is detected by time-resolved fluorescence in a Gemini SpectraMax reader (Molecular Devices). Compounds are evaluated over a range of concentrations, and IC50 values (concentration of compounds giving 50% inhibition of enzymatic activity) are determined.

[1] = tested on: VEGF-dependent phospho ERK1/2 (T202/Y204) in HUVEC cells; assay: VEGF-Dependent Erk Phosphorylation in HUVEC cells; type: cell-based; conditions: Homo sapiens, 1.5 h compound exposure, VEGF165 150 ng/ml, Western blot densitometry, read-out: P_ERK_IC50_UM
Description: HUVEC cells are purchased from Cambrex Bio Science Walkersville, Inc and cultured according to the vendor's instructions. The full-length coding sequence of VEGF165 is cloned using the Gateway Cloning Technology (Invitrogen) for baculovirus expression Sf9 cells. VEGF165 is purified from conditioned media using a NaCl gradient elution from a HiTrap heparin column (GE Healthcare Life Sciences) followed by an imidazole gradient elution from a HiTrap chelating column (GE Healthcare Life Sciences), then buffer stored in PBS supplemented with 0.1% BSA and filter sterilized
Cells are seeded at 8000 cells/well of a 96 wells plate and grown for 48 hours. Cells are then grown overnight in serum and growth factor-free medium and exposed for 1.5 h to compounds dilutions. Following a 15 min incubation in medium, VEGF165 (150 ng/ml) cells are lysed in ice-cold lysis buffer (50 mM HEPES, pH 7.4, 150 mM NaCl, 1.5 mM MgCl2, 1% Triton X-100, 10% glycerol) containing 1 mM 4-(2 aminoethyl)benzenesulfonyl fluoride hydrochloride, 200 μM sodium orthovanadate, 1 mM sodium fluoride, 10 μg/mL leupeptin, 10 μg/mL aprotinin, 1 μg/mL pepstatin and 50 μg/mL Na-p-tosyl-L-lysine chloromethyl ketone hydrochloride and processed as Western blots to detect anti-phospho ERK1/2 (T202/Y204)(Cell Signaling Technologies). […]

| Structure (SMILES) | IC50 (VEGFR2 (KDR)) [nM] | IC50 [1] [nM] |
| --- | --- | --- |
| Clc1ccc(Nc2nc3cc(Oc4ccnc5cc(-c6ccc(CNc7cccc(OCCN8CCOCC8)c7)cn6)sc45)ccc3o2)cc1 [Compound 19] | 12 | – |
| Clc1ccc(Nc2nc3cc(Oc4ccnc5cc(-c6ccc(CNc7ccc(OCCN8CCOCC8)cc7)cn6)sc45)ccc3o2)cc1 [Compound 18] | 23 | – |
| O=C1CCCN1Cc1ccc(-c2cc3nccc(Oc4ccc5nc(Nc6cccc(Cl)c6)oc5c4)c3s2)nc1 [Compound 50] | 434 | – |
| O=C(c1cc2nccc(Oc3ccc4oc(Nc5ccccc5)nc4c3)c2s1)N1CCCCC1 [Compound 59] | 240 | – |
| O=C1CCCN1Cc1ccc(-c2cc3nccc(Oc4ccc5oc(Nc6ccc(Cl)cc6)nc5c4)c3s2)nc1 [Compound 46, 1-((6-(7-(2-(4-Chlorophenylamino)benzo[d]oxazol-5-yloxy)thieno[3,2-b]pyridin-2-yl)pyridin-3-yl)methyl)pyrrolidin-2-one] | 5 | – |
| O=C(CO)NC1CCN(Cc2ccc(-c3cc4nccc(Oc5ccc6oc(Nc7ccc(Cl)cc7)nc6c5)c4s3)nc2)CC1 [Compound 12, N-(1-((6-(7-(2-(4-Chlorophenylamino)benzo[d]oxazol-5-yloxy)thieno[3,2-b]pyridin-2-yl)pyridin-3-yl)methyl)piperidin-4-yl)-2-hydroxyacetamide] | 6 | – |
| COCCN(Cc1ccc(-c2cc3nccc(Oc4ccc5oc(Nc6ccc(Cl)cc6)nc5c4)c3s2)nc1)C(C)=O [Compound 62] | 4 | – |
| COCCN(Cc1ccc(-c2cc3nccc(Oc4ccc5oc(Nc6ccccc6)nc5c4)c3s2)nc1)C(C)=O [Compound 64] | 47 | – |
| Clc1ccc(Nc2nc3cc(Oc4ccnc5cc(-c6ccc(CNc7cc[nH]n7)cn6)sc45)ccc3o2)cc1 [Compound 17] | 41.3 | – |
| CCN(CC)CCNC(=O)c1ccc(NCc2ccc(-c3cc4nccc(Oc5ccc6oc(Nc7ccc(Cl)cc7)nc6c5)c4s3)nc2)cc1 [Compound 16, 4-((6-(7-(2-(4-Chlorophenylamino)benzo[d]oxazol-5-yloxy)thieno[3,2-b]pyridin-2-yl)pyridin-3-yl)methyl)amino-N-(2-(diethylamino)ethyl)benzamide] | 16 | – |
| CCNC(=O)NC1CCN(Cc2ccc(-c3cc4nccc(Oc5ccc6oc(Nc7ccc(Cl)cc7)nc6c5)c4s3)nc2)CC1 [Compound 13] | 7 | – |
| CCNC(=O)N(C)C1CCN(Cc2ccc(-c3cc4nccc(Oc5ccc6oc(Nc7ccc(Cl)cc7)nc6c5)c4s3)nc2)CC1 [Compound 15] | 7 | – |
| O=C1CCCN1Cc1ccc(-c2cc3nccc(Oc4ccc5oc(Nc6cccc(Cl)c6)nc5c4)c3s2)nc1 [Compound 49] | 2 | – |
| CCn1cc(CN(Cc2ccc(-c3cc4nccc(Oc5ccc6oc(Nc7ccc(Cl)cc7)nc6c5)c4s3)nc2)C(C)C)nn1 [Compound 21, N-(4-Chlorophenyl)-5-(2-(5-((((1-ethyl-1H-1,2,3-triazol-4-yl)methyl)(isopropyl)amino)methyl)pyridin-2-yl)thieno[3,2-b]pyridin-7-yloxy)benzo[d]oxazol-2-amine] | 8 | – |
| O=C1CCCN1Cc1ccc(-c2cc3nccc(Oc4ccc5oc(Nc6ccc(F)cc6)nc5c4)c3s2)nc1 [Compound 55] | 14 | – |
| CN(C(=O)CO)C1CCN(Cc2ccc(-c3cc4nccc(Oc5ccc6oc(Nc7ccc(Cl)cc7)nc6c5)c4s3)nc2)CC1 [Compound 14] | 5 | – |
| COCCN(Cc1ccc(-c2cc3nccc(Oc4ccc5oc(NC6CC6)nc5c4)c3s2)nc1)C(C)=O [Compound 63] | 1580 | – |
| CC(C)(C)OC(=O)N1CCN(Cc2ccc(-c3cc4nccc(Oc5ccc6oc(Nc7ccc(Cl)cc7)nc6c5)c4s3)nc2)CC1 [Compound 65] | 232 | – |
| O=C1CCCN1Cc1ccc(-c2cc3nccc(Oc4ccc5oc(Nc6cccc(F)c6)nc5c4)c3s2)nc1 [Compound 56] | 29 | – |
| O=C1CCCN1Cc1ccc(-c2cc3nccc(Oc4ccc5oc(Nc6ccccc6Cl)nc5c4)c3s2)nc1 [Compound 54] | 139 | – |
| COc1ccc(Nc2nc3cc(Oc4ccnc5cc(-c6ccc(CN7CCCC7=O)cn6)sc45)ccc3o2)cc1 [Compound 53] | 3 | – |
| CN(C)[C@H]1CCN(C(=O)c2cc3nccc(Oc4ccc5oc(Nc6ccccc6)nc5c4)c3s2)C1 [Compound 61] | 19 | – |
| O=C1CCCN1Cc1ccc(-c2cc3nccc(Oc4ccc5nc(Nc6ccc(Cl)cc6)oc5c4)c3s2)nc1 [Compound 51] | 278 | – |
| O=C1CCCN1Cc1ccc(-c2cc3nccc(Oc4ccc5oc(Nc6ccc(Cl)c(C(F)(F)F)c6)nc5c4)c3s2)nc1 [Compound 57] | 18 | – |
| O=C1CCCN1Cc1ccc(-c2cc3nccc(Oc4ccc5oc(NC6CC6)nc5c4)c3s2)nc1 [Compound 47] | 1560 | 120 |
| O=C1CCCN1Cc1ccc(-c2cc3nccc(Oc4ccc5oc(Nc6ccc(C(F)(F)F)cc6)nc5c4)c3s2)nc1 [Compound 52] | 6 | – |
